Earlier results as cited in US12533416B2, “Krill oil for solubilizing poorly water-soluble dietary supplements and pharmaceutically active agents” (ID CARE UG (haftungsbeschränkt), priority 2018, dated 2026).

Conditions: Class 4 = low solubility

SMILES	BCS class (solubility / permeability)
Nc1nc2c(ncn2COCCO)c(=O)[nH]1 [Aciclovir, aciclovir]	BCS Class 4
CC[C@H]1OC(=O)[C@H](C)[C@@H](O[C@H]2C[C@@](C)(OC)[C@@H](O)[C@H](C)O2)[C@H](C)[C@@H](O[C@@H]2O[C@H](C)C[C@H](N(C)C)[C@H]2O)[C@](C)(O)C[C@@H](C)CN(C)[C@H](C)[C@@H](O)[C@]1(C)O [Azithromycin, azithromycin]	BCS Class 4
